What follows are compounds tested on Atoh1 (assay: Atoh1 induction assay in mouse cerebellar neural precursor cells (Atoh1-GFP reporter assay)). Settings: maximum fold difference over DMSO control (=1), cerebellar NPCs from Atoh1-GFP mice, 10 doses 50 μM to 200 nM, 72 hours treatment, read-out: Fold Difference (ratio of Atoh1-GFP average intensity_FC to DMSO_Max).
Type: cell-based
Description: Atoh1 induction assay was conducted with in vitro cultured cerebellar neural precursor cells isolated from neonatal transgenic Atoh1-GFP mice. Atoh1 expression is mainly regulated by the enhancer, and the nuclear GFP was driven by the cloned enhancer sequence at 3′ of Atoh1 which had high conservation among mammalians So Atoh1 induction could be reflected by GFP activation in cerebellar neural precursor cells (Helms et al., Development 2000; 127: 1185-1196; Lumpkin et al., Gene Expression Patterns 2003; 3: 389-395). Postnatal 3 days pups were dissected for cerebellum tissue isolation. The cerebellum tissue was cut into small pieces, and dissociated with 0.05% Trypsin for about 10 minutes at 37° C., and then filtered with a 70 uM cell strainer. The cells were cultured as neuropsheres for the first 2 days in ultra-low attachment dish/well-plate with DMEM/F12+1% N2 &2% B27 with 1% P/S, 20 ng/ml rhFGF2 and 20 ng/ml rhEGF (R&D Systems). Then the spheres were plated to the matrigel (1:30 diluted in DMEM/F12)-coated tissue culture dish for monolayer culture. After 4.5-5.5 days culture in vitro (DIV), cells were dissociated with 0.05% trypsin into single cells, and frozen after cell number calculation.
The cerebellar neural precursor cells (NPCs) were re-thawed from stock and cultured for another 2 days before used for Atoh1 induction assay. On the first day of assay, NPCs were seeded into matrigel-coated 384 well plates (Black view-plate, PE) at 2500 cells/well. After over-night culture, the NPCs were treated with representative compounds of the present disclosure with 1:2 serial dilutions for 10 doses, from 50 μM to 200 nM, with DMSO as negative control. After 72 hours treatment without medium change, the cells were fixed with 4% formalin for staining Assay plates were stained with GFP antibody (Abcam, #13970, 1:1000) to amplify endogenous GFP signal and then read by Cellomics. […] Table 1 Atoh1 activation by treatment of Compounds of the present disclosure (Atoh1-GFP reporter assay in cerebellar NPCs)
`O=C(NCCCCCN1CC(C(=O)NC2COCC2O)C1)c1cc(-c2cccs2)on1` (centres unmarked) [Example 36, N-(5-(3-((4-hydroxytetrahydrofuran-3-yl)carbamoyl)azetidin-1-yl)pentyl)-5-(thiophen-2-yl)isoxazole-3-carboxamide] was tested, and the maximal fold induction was 13.6.
`NS(=O)(=O)C1CCN(CCCCCNC(=O)c2cc(-c3cccs3)on2)CC1` [Example 14, N-(5-(4-sulfamoylpiperidin-1-yl)pentyl)-5-(thiophen-2-yl)isoxazole-3-carboxamide] was tested, and the maximal fold induction was 23.8.
Work on `NC(=O)[C@H](O)CN1CCN(CCCCCNC(=O)c2cc(-c3cccs3)on2)CC1` [37 R] yielded a maximal fold induction of 29.2.
Work on `NC(=O)C1CN(CCCCCNC(=O)c2cc(-c3ccc(F)s3)on2)C1` [Example 23, N-(5-(3-carbamoylazetidin-1-yl)pentyl)-5-(5-fluorothiophen-2-yl)isoxazole-3-carboxamide] yielded a maximal fold induction of 24.3.
For `NS(=O)(=O)C1CCN(CCCCCNC(=O)c2cc(-c3ccc(F)cc3)on2)CC1` [Example 15, 5-(4-fluorophenyl)-N-(5-(4-sulfamoylpiperidin-1-yl)pentyl)isoxazole-3-carboxamide], the maximal fold induction was 18.9.
`N#C[C@@H]1CN(CCCCCNC(=O)c2cc(-c3cccs3)on2)CC[C@@H]1C(N)=O` [Example 1, N-(5-((3S,4S)-4-carbamoyl-3-cyanopiperidin-1-yl)pentyl)-5-(thiophen-2-yl)isoxazole-3-carboxamide] showed a maximal fold induction of 12.7.
`N#C[C@H]1CCN(CCCCCNC(=O)c2cc(-c3ccc(F)cc3)on2)C[C@H]1O` (single isomer, unassigned) [Example 2] showed a maximal fold induction of 11.5.
`NC(=O)C1CN(CCCCCNC(=O)c2cc(-c3cccs3)on2)CC1O` (centres unmarked) [Example 13, N-(5-(3-carbamoyl-4-hydroxypyrrolidin-1-yl)pentyl)-5-(thiophen-2-yl)isoxazole-3-carboxamide] gave a maximal fold induction of 32.5.
In the case of `NC(=O)C1(O)CN(CCCCCNC(=O)c2cc(-c3cccs3)on2)C1` [Example 21, N-(5-(3-carbamoyl-3-hydroxyazetidin-1-yl)pentyl)-5-(thiophen-2-yl)isoxazole-3-carboxamide], the maximal fold induction is reported as 20.8.
`NS(=O)(=O)C1CCCN(CCCCCNC(=O)c2cc(-c3cccs3)on2)C1` (centres unmarked) [Example 6, N-(5-(3-sulfamoylpiperidin-1-yl)pentyl)-5-(thiophen-2-yl)isoxazole-3-carboxamide] was tested, and the maximal fold induction was 20.1.
For `NC(=O)C1CCN(CCCCCNC(=O)c2cc(-c3ccc(F)cc3)on2)CC1O` (centres unmarked) [Example 31, N-(5-(4-carbamoyl-3-hydroxypiperidin-1-yl)pentyl)-5-(4-fluorophenyl)isoxazole-3-carboxamide], the maximal fold induction was 14.7.
With `NS(=O)(=O)C1CCN(CCCCCNC(=O)c2cc(-c3cccs3)on2)C1` (centres unmarked) [Example 7, N-(5-(3-sulfamoylpyrrolidin-1-yl)pentyl)-5-(thiophen-2-yl)isoxazole-3-carboxamide] the maximal fold induction was 17.2.
For `NS(=O)(=O)CCN1CCN(CCCCCNC(=O)c2cc(-c3cccs3)on2)CC1` [Example 19, N-(5-(4-(2-sulfamoylethyl)piperazin-1-yl)pentyl)-5-(thiophen-2-yl)isoxazole-3-carboxamide], the maximal fold induction was 16.3.
With `N#C[C@@H]1CN(CCCCCNC(=O)c2cc(-c3cccs3)on2)C[C@@H]1O` [34 cis] the maximal fold induction was 11.2.
In the case of `N#C[C@H]1CCN(CCCCCNC(=O)c2cc(-c3cccs3)on2)C[C@@H]1O` [Example 16, N-(5-((3R,4R)-4-cyano-3-hydroxypiperidin-1-yl)pentyl)-5-(thiophen-2-yl)isoxazole-3-carboxamide], the maximal fold induction is reported as 32.3.
With `NC(=O)CCN1CCN(CCCCCNC(=O)c2cc(-c3cccs3)on2)CC1` [Example 17, N-(5-(4-(3-amino-3-oxopropyl)piperazin-1-yl)pentyl)-5-(thiophen-2-yl)isoxazole-3-carboxamide] the maximal fold induction was 20.4.
In the case of `NC(=O)C1(CO)CN(CCCCCNC(=O)c2cc(-c3cccs3)on2)C1` [Example 9, N-(5-(3-carbamoyl-3-(hydroxymethyl)azetidin-1-yl)pentyl)-5-(thiophen-2-yl)isoxazole-3-carboxamide], the maximal fold induction is reported as 24.4.

— patent US20210355115A1, “ISOXAZOLE CARBOXAMIDE COMPOUNDS AND USES THEREOF” (Novartis AG, priority 2018, published 2021)
